What was measured:
Type in all cases: in vivo
[1] = test system: control mice expressing eYFP in the BLA nociceptive ensemble; assay: Pain behaviors in control mice expressing eYFP in the BLA nociceptive ensemble (no hM4)
Experimental: For chemogenetic activity manipulation of BLA neuronal ensembles, we intracranially injected 100 nL of either AAV5-hSyn-DIO-hM4-mCherry (U. North Carolina Viral Core; titre: 3.98×1012), AAV5-hSyn-DIO-mCherry (U. North Carolina Viral Core; titre: 4.72×1012), AAVDJ-Ef1a-DIO-eYFP (Stanford Viral Core; titre: 2.65×1011) into both the left and right BLA at coordinates AP: −1.20 mm, ML: ±3.1 mm, DV: −4.60 mm.
(§1) To evaluate mechanical reflexive sensitivity, we used a logarithmically increasing set of 8 von Frey filaments (Stoelting), ranging in gram force from 0.07- to 6.0-g (93). These filaments were applied perpendicular to the plantar hindpaw with sufficient force to cause a slight bending of the filament. A positive response was characterized as a rapid withdrawal of the paw away from the stimulus within 4 s. Using the Up-Down statistical method, the 50% withdrawal mechanical threshold scores were calculated for each mouse and then averaged across the experimental groups. The response frequency was calculated as the number of positive responses out of 10 stimulations, delivered at 30-s intervals.
To evaluate affective-motivational responses evoked by mechanical stimulation, we used three von Frey filaments (0.07-g, 0.4-g, and 2.0-g) and a sharp 25G syringe needle (pin prick) (94). […]
(§2) To evaluate affective-motivational responses evoked by thermal stimulation (81), we applied either a single, unilateral 50-μL drop of water (5, 30, or 55° C.) or acetone (evaporative cooling) to the left hindpaw, and the duration of attending behavior was collected for up to 60 s after the stimulation. […] The track was subdivided into 25 temperature zones (4.8-cm D per zone), and we assessed the temperature at the center of each zone by a K-probe thermocouple. […] A video camera placed above the track recorded the position of the mouse within the temperature zones, and videos were later analyzed using a video-tracking software (Etho-vision, Noldus) for duration of zone occupancy, zone visits, distance, velocity, and acceleration.

[2] = test system: ChR2-eYFP+ nociceptor mice; assay: Optical real-time place escape avoidance task; conditions: CNO 10 mg/kg
Source text: To evaluate active avoidance and escape behaviors to optogenetically driven nociception, mice expressing ChR2 in peripheral primary afferent nociceptors freely explored a custom-built two-choice chamber with LED-lit floor panels. A 32×32 LED array (8×8 cm) illuminated half the array in blue light, and the other half in red light (˜0.3 mW/mm^2). A thin glass surface (0.5 cm thick) covered the array floor, upon which we fitted a black plastic chamber (38 cm H) with a center divider wall containing a square passage hole (5-cm D) raised 2.5 cm from the array floor. The entire LED chamber was maintained in a quiet room with low ambient light (˜5 lux). We first placed mice in the red-light chamber and then allowed them to freely explore the chambers for 15 min. A camera placed above the chamber recorded the location of the mouse in the apparatus. We manually scored the videos to determine the time spent by the mouse in each chamber (automated tracking was not possible given the light from the LED floor). Only one mouse was present in the room during all trials.

control neuropathic mice = assay: Pain behaviors in control neuropathic mice not expressing hM4-mCherry in the BLA; conditions: absence of hM4 expression, CNO 10 mg/kg, morphine as positive control
Source text: To induce a chronic pain state, we used a modified version of the Spared Nerve Injury (SNI) model of neuropathic pain, as previously described (70). This model entails surgical section of two of the sciatic nerve branches (common peroneal and tibial branches) while sparing the third (sural branch). […] To perform this peripheral nerve injury procedure, anesthesia was induced and maintained throughout surgery with isoflurane (4% induction, 1.5% maintenance in oxygen). The left hind leg was shaved and wiped clean with alcohol and betadine. We made a 1-cm incision in the skin of the mid-dorsal thigh, approximately where the sciatic nerve trifurcates. The biceps femoris and semimembranosus muscles were gently separated from one another with blunt scissors, thereby creating a <1-cm opening between the muscle groups to expose the common peroneal, tibial, and sural branches of the sciatic nerve. Next, −2 mm of both the common peroneal and tibial nerves were transected and removed, without suturing and with care not to distend the sural nerve. The leg muscles are left uncultured and the skin was closed with tissue adhesive (3M Vetbond), followed by a Betadine application. During recovery from surgery, mice were placed under a heat lamp until awake and achieved normal balanced movement. Mice were then returned to their home cage and closely monitored over the following three days for well-being.
as §1, with “A positive response was characterized as a rapid withdrawal of the paw away from the stimulus within 4 s.” left out
as §2

[3] = test system: neuropathic TRAP^hM4 mice; assay: Two-chamber thermal escape-avoidance (cold place aversion) assay; conditions: floor of one chamber cooled from 30° to 10° C.
Experimental: To evaluate neuropathic adaptive cool/cold avoidance behavior, mice with SNI freely explored a two-temperature choice chamber. The chamber was constructed from adjoining two thermal plates (Bioseb): one reference plate set at 30° C., and a test plate with the temperature adjusted to either 30, 25, 20, 15, or 10° C. for independent trials. The test plate temperature order was randomized for each trial within the day. The chamber (white opaque plastic with no distinguishing features and no divider, 30.48×15.24×15.24 cm) was fitted onto the conjoined plates. At Day 56 post SNI and at 30-min post CNO injection, we placed mice on the reference plate facing the back wall. Mice then freely explored the chamber for 5 min, while an overhead camera recorded the chamber position and locomotion. After each trial, the mouse was returned to the holding cylinder, while the test plate temperature was rapidly cooled or heated to the next randomly assigned temperature trial. This procedure was repeated until all temperature trials were collected (6 temperature trials total). Video files for each trial were later analyzed using automated tracking software (Ethovision, Noldus) for path tracking, time spent on the test plate, and number of entries onto the test plate.

noci-TRAP^hM4 mice = assay: Thermal gradient track adaptive avoidance; conditions: versus saline
Experimental: To evaluate affective-motivational responses evoked by thermal stimulation (81), we applied either a single, unilateral 50-μL drop of water (5, 30, or 55° C.) or acetone (evaporative cooling) to the left hindpaw, and the duration of attending behavior was collected for up to 60 s after the stimulation. Only one drop stimulation was applied on a given testing session. To evaluate adaptive thermal avoidance and temperature preference, we placed mice in the center of a linear Thermal Gradient Track (121.92-cm L×8.25-cm W metal alloy floor; 15.24-cm H black plastic walls), with the floor featuring a temperature gradient along the long axis. Mice freely explored the track for 60 min. To create the temperature gradient, we placed either heating or cooling plates (Bioseb) under the outermost 16.51 cm of the metal floor, with one plate set to 50.0° C. and the other set to 0.0° C., creating an actual floor gradient of 48° C.→5° C., respectively. The track was subdivided into 25 temperature zones (4.8-cm D per zone), and we assessed the temperature at the center of each zone by a K-probe thermocouple. […] A video camera placed above the track recorded the position of the mouse within the temperature zones, and videos were later analyzed using a video-tracking software (Etho-vision, Noldus) for duration of zone occupancy, zone visits, distance, velocity, and acceleration.

[4] = CNO 10 mg/kg, AAVDJ-Ef1α-DIO-eYFP control mice

C[N+]1([O-])CCN(C2=Nc3cc(Cl)ccc3Nc3ccccc32)CC1 [CNO, clozapine-N-oxide]
affective-motivational behaviors [1, 4]: Lack of effect
reflexive behaviors [1, 4]: Lack of effect
pain behaviors ([1]; CNO alone, control mice): had no effect
aversion to the noxious blue light chamber [2]: eliminated the aversion
affective-motivational behaviors (control neuropathic mice; acetone drop): Lack of effect
reflex behaviors (control neuropathic mice; von Frey filaments): Lack of effect
preference between cold and neutral temperature chambers [3]: near-total indifference
visits to the noxious zones (noci-TRAP^hM4 mice; polar ends noxious cold (5 to 17° C.) and hot (42 to 8° C.)): more frequently
occupancy of the noxious zones (noci-TRAP^hM4 mice; polar ends noxious cold (5 to 17° C.) and hot (42 to 48° C.)): prolonged periods

Source: patent publication US20210220489A1, “AMYGDALAR NEURAL ENSEMBLE THAT ENCODES THE UNPL[…] PAIN” (The Board of Trustees of the Leland Stanford Junior …, priority 2020, published 2021)
